Where a name gives a salt, the structure may show the parent alone.

One data set deals with carrageenin-induced oedema. As to the kind of experiment: Localised carrageenin-induced oedema method (anti-inflammatory action). The format is in vivo, rat. Conditions: 100 mg/kg oral per administration, rat, 1 hour after carrageenin. On the procedure:
a. Localised carrageenin-induced oedema method
A 1% solution of carrageenin (0.1 ml) is injected into the metatarsal flexor muscles of the right hand rear paw of the rat at time "0".
The animals of the treated group also receive, by the oral route, 100 mg/kg of the compound to be tested, respectively 1 hour before and at the same time as the injection of the phlogogenic agent, then 1 hour and 21/2 hours after. The measurements made with the aid of a micrometer at the time "0" and 1 hour, 2 hours, 3 hours and 5 hours after the administration of the carrageenin, enable one to determine, in relation to time, the percentage of anti-inflammatory activity in relation to the control group.
a. method of localised carrageenin-induced oedema
The oral administration of […] of the derivatives to be tested produces a clear reduction of the inflammatory reaction provoked.
(In the carrageenan paw model, swelling and tenderness develop within hours.)
Turning to `CCN(CC)CC=C1CN=C(NCC(O)c2ccccc2)S1` (stereo not drawn) [Derivative No. 4, 2-β-hydroxyphenethylamino 5-(N-diethylaminoethylidene) Δ^2-thiazoline], the “percentage of anti-inflammatory activity, First Hour” value is on record as 39%.
The same measure, in the same setting: then `CCN(CC)CC=C1CN=C(N(CC)C2CCCCC2)S1` [Derivative No. 10, 5-(β-diethylaminoethylidene) 2-N-ethyl N-cyclohexylamino) Δ^2-thiazoline oxalate], with 44%; and `CCN(CC)CCc1cnc(N(C)C2CCCCC2)s1` [Derivative No. 22, 5-β-diethylaminoethyl 2-(N-methyl N-cyclohexylamino)-thiazole dioxalate], with 42%.

The same data set, now with this note: 100 mg/kg oral per administration, rat, 2 hours after carrageenin.
For the molecule `CCN(CC)CC=C1CN=C(NCC(O)c2ccccc2)S1` (stereo not drawn) [Derivative No. 4, 2-β-hydroxyphenethylamino 5-(N-diethylaminoethylidene) Δ^2-thiazoline], the “percentage of anti-inflammatory activity, Second Hour” value came to 40%.
Same read-out and setting: then `CCN(CC)CC=C1CN=C(N(CC)C2CCCCC2)S1` [Derivative No. 10, 5-(β-diethylaminoethylidene) 2-N-ethyl N-cyclohexylamino) Δ^2-thiazoline oxalate], with 47%; and `CCN(CC)CCc1cnc(N(C)C2CCCCC2)s1` [Derivative No. 22, 5-β-diethylaminoethyl 2-(N-methyl N-cyclohexylamino)-thiazole dioxalate], with 46%.

The same data set, now with this note: 100 mg/kg oral per administration, rat, 3 hours after carrageenin.
In the case of `CCN(CC)CC=C1CN=C(NCC(O)c2ccccc2)S1` (stereo not drawn) [Derivative No. 4, 2-β-hydroxyphenethylamino 5-(N-diethylaminoethylidene) Δ^2-thiazoline], the “percentage of anti-inflammatory activity, Third Hour” value is 49%.
Same read-out and setting: then `CCN(CC)CC=C1CN=C(N(CC)C2CCCCC2)S1` [Derivative No. 10, 5-(β-diethylaminoethylidene) 2-N-ethyl N-cyclohexylamino) Δ^2-thiazoline oxalate], with 52%; and `CCN(CC)CCc1cnc(N(C)C2CCCCC2)s1` [Derivative No. 22, 5-β-diethylaminoethyl 2-(N-methyl N-cyclohexylamino)-thiazole dioxalate], with 54%.

Staying with this data set, now noted: 100 mg/kg oral per administration, rat, 5 hours after carrageenin.
Regarding `CCN(CC)CC=C1CN=C(NCC(O)c2ccccc2)S1` (stereo not drawn) [Derivative No. 4, 2-β-hydroxyphenethylamino 5-(N-diethylaminoethylidene) Δ^2-thiazoline], the “percentage of anti-inflammatory activity, Fifth Hour” value was 53%.
Still for that read-out and setting: then `CCN(CC)CC=C1CN=C(N(CC)C2CCCCC2)S1` [Derivative No. 10, 5-(β-diethylaminoethylidene) 2-N-ethyl N-cyclohexylamino) Δ^2-thiazoline oxalate], with 56%.
Same read-out and setting: then `CCN(CC)CCc1cnc(N(C)C2CCCCC2)s1` [Derivative No. 22, 5-β-diethylaminoethyl 2-(N-methyl N-cyclohexylamino)-thiazole dioxalate], with 56%.

Test system in a further data set: not listed separately
As to the kind of experiment: Triton test (hypocholesterolemic action). In kind it is in vivo, rat. The settings on record: 100 mg/kg oral, rat, 18 hours after Triton. On the procedure: The intravenous injection of Triton W-R 1339 (an alkylaryl polyetheralcohol sold by Rohm and Haas) enables one to artifically increase, in the rat, certain lipidic fractions of serum and thus to evalute the hypocholesterolemic action of the compounds of the invention. […]
Eighteen hours later a blood sample is taken and the β-lipoproteins, the free cholesterol and the cholesterol are determined.
This test, which enables one to evaluate the hypocholesterolemic action of the derivatives to be tested, on serum levels of certain lipid fractions, has shown the remarkable effect of the compounds according to the invention.
As for `CCCCNc1ncc(CCN(CC)CC)s1` [Derivative No. 9, 2-butylamino 5-β-diethylaminoethyl thiazole dihydrochloride], the “reduction of free cholesterol and of total cholesterol” value is given as about 24%.
In the case of `CCN(CC)CC=C1CN=C(N(CC)CC)S1` [Derivative No. 15, 2-diethylamino 5-(2-diethylaminoethylidene) Δ^2-thiazoline dioxalate], the “reduction of free cholesterol and of total cholesterol” value was about 22%.

Test system in the next data set: not listed separately
In words: LD50/24 h by the method of Miller & Tainter, intravenous route, mice. Conditions: mouse, in vivo, read-out: LD50 /24 h/kg of body weight.
`CCN(CC)CC=C1CN=C(N2CCOCC2)S1` [Derivative No. 14, 5-β-diethylaminoethylidene 2-morpholino Δ^2-thiazoline oxalate]: the LD50 at 24 h is 105 mg/kg.
Consider `CCN(CC)CC=C1CN=C(NC(C)(C)CC(C)(C)C)S1` [Derivative No. 18, 5-(β-diethylaminoethylidene) 2-(1,1,3,3-tetramethyl-butyl-amino) Δ^2-thiazoline], for which the LD50 at 24 h was found to be 45 mg/kg.

Another data set relates to ovalbumin-induced oedema. In words: Generalised ovalbumin-induced oedema method (anti-inflammatory action). The format is in vivo, rats. Conditions: 100 mg oral, rats, second hour. On the procedure: b. Generalised ovalbumin-induced oedema method
A simultaneous intraperitoneal injection of 1 ml of ovalbumin and of 0.5 ml of an aqueous solution of Evans Blue at 1 ml per thousand by weight is administered to rats.
For comparative purposes, 100 mg of the compound to be tested is administered orally to the animals of the group to be treated, 1 hour before and at the same time as the ovalbumin. The intensity of the phenomenon thus provoked in noted by a FIG. 1 to 5 according to the intensity of the inflammatory syndrome.
Thus one determines the average of the oedematic intensity and the percentage of decrease of the oedematic reaction in relation to the control animals.
b. method of generalised ovalbumin-induced oedema
The percentages of reduction of oedematic reaction, in the test animals, in subjects treated by the oral route by the administration of […] of the compound to be tested show the clear anti-inflammatory action of the compounds according to the invention.
For `CCN(CC)CC=C1CN=C(NCC(O)c2ccccc2)S1` (stereo not drawn) [Derivative No. 4, 2-β-hydroxyphenethylamino 5-(N-diethylaminoethylidene) Δ^2-thiazoline], the “percentage of decrease of the oedematic reaction, Second Hour” value (from here on “percentage of decrease … Second Hour”) came to 59%.
For the molecule `CCN(CC)CC=C1CN=C(N(CC)C2CCCCC2)S1` [Derivative No. 10, 5-(β-diethylaminoethylidene) 2-N-ethyl N-cyclohexylamino) Δ^2-thiazoline oxalate], the “percentage of decrease … Second Hour” value worked out at 57%.
In the case of `CCN(CC)CCc1cnc(N(C)C2CCCCC2)s1` [Derivative No. 22, 5-β-diethylaminoethyl 2-(N-methyl N-cyclohexylamino)-thiazole dioxalate], the “percentage of decrease … Second Hour” value amounted to 52%.

Still in this data set, the particulars now being: 100 mg oral, rats, third hour.
For the molecule `CCN(CC)CC=C1CN=C(NCC(O)c2ccccc2)S1` (stereo not drawn) [Derivative No. 4, 2-β-hydroxyphenethylamino 5-(N-diethylaminoethylidene) Δ^2-thiazoline], the “percentage of decrease of the oedematic reaction, Third Hour” value was 65%.
On the same count and under the same terms, then `CCN(CC)CC=C1CN=C(N(CC)C2CCCCC2)S1` [Derivative No. 10, 5-(β-diethylaminoethylidene) 2-N-ethyl N-cyclohexylamino) Δ^2-thiazoline oxalate], with 64%.
The same measure, in the same setting: then `CCN(CC)CCc1cnc(N(C)C2CCCCC2)s1` [Derivative No. 22, 5-β-diethylaminoethyl 2-(N-methyl N-cyclohexylamino)-thiazole dioxalate], with 60%.

Test system in another data set: not listed separately
As to the kind of experiment: Propyl-thiouracil test (hypocholesterolemic action). The format is in vivo, rats. The settings on record: 100 mg/kg oral, rats, 11th day; control 0.20 g/l. On the procedure: a. Propyl-thiouracil test (RANNEY et Coll. J. Pharmacol. Exper. Therap. 1963, 142, 132-136)
The administration of propyl-thiouracil to adult rats renders them hypercholesterolemic; in effect, the plasmatic cholesterol rate has increased by about 15%. The testing is carried out on two groups of rats, the control group receiving the propyl-thiouracil only whilst the treated group also receives 100 mg/kg of the compounds to be tested, by the oral route.
On the 11th day of the experiment, the blood samples are taken and the β-lipoproteins, the free cholesterol and the total cholesterol measured.
a. Propyl-thiouracil test (Ranney et Coll. J. Pharmacol. Exper. Therap. 1963, 142, 132-136)
This test has shown the clearly favourable action of the derivatives according to the invention, at a dose of […].
For `CCCCNc1ncc(CCN(CC)CC)s1` [Derivative No. 9, 2-butylamino 5-β-diethylaminoethyl thiazole dihydrochloride], the “Free cholesterol” value was 0.15 g/L.
As to `CCN(CC)CC=C1CN=C(N(CC)CC)S1` [Derivative No. 15, 2-diethylamino 5-(2-diethylaminoethylidene) Δ^2-thiazoline dioxalate], the “Free cholesterol” value is 0.12 g/L.

The same data set, now with this note: 100 mg/kg oral, rats, 11th day; control 0.86 g/l.
As for `CCCCNc1ncc(CCN(CC)CC)s1` [Derivative No. 9, 2-butylamino 5-β-diethylaminoethyl thiazole dihydrochloride], the “Total cholesterol” value came out at 0.58 g/L.
The same measure, in the same setting: then `CCN(CC)CC=C1CN=C(N(CC)CC)S1` [Derivative No. 15, 2-diethylamino 5-(2-diethylaminoethylidene) Δ^2-thiazoline dioxalate], with 0.58 g/L.

Values taken from patent publication US4018786A, “2-Aminothiazolines and a process for preparation thereof” (Centre d'Etudes pour l'Industrie Pharmaceutique, priority 1974, dated 1977).
